Tests used:
bacterial pathogens = conditions: salt tolerance; cited from earlier work
Procedure: For example, Pleurocidin is an AMP isolated from a marine flatfish Pseudopleuronectes americanus (Winter flounder) and has been reported to be active against bacterial pathogens at high NaCl concentrations, up to 625 mM[15]. This potential salt-insensi ...

B. subtilis = test: Radial diffusion assay; format: cell-based, Bacillus subtilis (ATCC, 11774); conditions: 5 µl of 500 µM per 3 mm well, 37 °C, mean ± SD
From the text: (§1) The microbial strains used in this study were Bacillus subtilis (ATCC, 11774), Candida albicans (TIMM, 1768), Enterococcus faecalis (ATCC, 33186), Escherichia coli (ATCC, 11775), Klebsiella pneumoniae (ATCC, 13883), Methicillin-resistant Staphylococcus aureus (ATCC, BAA-41), Pseudomonas aeruginosa (ATCC, 10145), Salmonella enterica (ATCC, 14028), Serratia marcescens (ATCC, 13880), Staphylococcus aureus (ATCC, 25923) and Vibrio parahaemolyticus (ATCC, 17802). All microbial strains were cultivated overnight at 37 °C and 200 rpm, then subcultured and incubated for 3 h under the same incubation conditions to obtain the mid-logarithmic growth phase. The cultivated cells were washed twice with 10 mM Tris–HCl containing 5 mM D-glucose at pH 7.4 and suspended in the same buffer to be used in different assays, as previously described.
(§2) The antimicrobial activity spectra of the selected cryptides were screened against all the mentioned microbial pathogens, except V. parahaemolyticus, by radial diffusion assay as previously described, with slight modifications. […] The plates were then incubated for 18 h, and the antimicrobial activities were measured in the absolute unit (AU), as previously described. […]
(§3) plate. The plates were then incubated for 12 h at 37 °C and antimicrobial activities were measured in the term of absolute unit (A.U). […]

S. aureus = test: Radial diffusion assay; format: cell-based, Staphylococcus aureus (ATCC, 25923); conditions: 5 µl of 500 µM per 3 mm well, 37 °C, mean ± SD
From the text: as §1, §2, §3

E. faecalis = test: Radial diffusion assay; format: cell-based, Enterococcus faecalis (ATCC, 33186); conditions: 5 µl of 500 µM per 3 mm well, 37 °C, mean ± SD
From the text: as §1, §2, §3

E. coli K-1 = test: Radial diffusion assay; format: cell-based, Escherichia coli (ATCC, 11775); conditions: 5 µl of 500 µM per 3 mm well, 37 °C, mean ± SD
From the text: as §1, §2, §3

K. pneumoniae = test: Radial diffusion assay; format: cell-based, Klebsiella pneumoniae (ATCC, 13883); conditions: 5 µl of 500 µM per 3 mm well, 37 °C, mean ± SD
From the text: as §1, §2, §3

S. enterica = test: Radial diffusion assay; format: cell-based, Salmonella enterica (ATCC, 14028); conditions: 5 µl of 500 µM per 3 mm well, 37 °C, mean ± SD
From the text: as §1, §2, §3

MRSA = test: Radial diffusion assay; format: cell-based, Methicillin-resistant Staphylococcus aureus (ATCC, BAA-41); conditions: 5 µl of 500 µM per 3 mm well, 37 °C, mean ± SD
From the text: as §1, §2, §3

S. marcescens = test: Radial diffusion assay; format: cell-based, Serratia marcescens (ATCC, 13880); conditions: 5 µl of 500 µM per 3 mm well, 37 °C, mean ± SD
From the text: as §1, §2, §3

S. epidermidis = test: Radial diffusion assay; format: cell-based; conditions: 5 µl of 500 µM per 3 mm well, 37 °C, mean ± SD
From the text: The antimicrobial activity spectra of the selected cryptides were screened against all the mentioned microbial pathogens, except V. parahaemolyticus, by radial diffusion assay as previously described, with slight modifications. We aimed to test different categories of pathogens on the WHO global priority due to their growing resistance to the available antibiotics such as P. aeruginosa, E. coli and K. pneumoniae in the critical category and Salmonella ssp. and S. aureus in the high category. Briefly, a total of 4 × 10^6 CFU of each pathogen was inoculated in 10 mL of an underlay agarose gel [0.03% w/v tryptone soy broth (TSB) medium, 1% w/v agarose and 0.02% v/v Tween 20 in 10 mM Tris–HCl] that was then poured into a 100-mm petri dish. After agarose solidification, 3 mm-diameter wells were punched by a sterile cork borer and 5 µl of 500 µM stock solution from each cryptide was added to each well. Melittin and acidified water were used as positive and negative controls, respectively. […] The plates were then incubated for 18 h, and the antimicrobial activities were measured in the absolute unit (AU), as previously described. […]
as §3

P. aeruginosa = test: Radial diffusion assay; format: cell-based, Pseudomonas aeruginosa (ATCC, 10145); conditions: 5 µl of 500 µM per 3 mm well, 37 °C, mean ± SD
From the text: as §1, §2, §3

C. albicans = test: Radial diffusion assay; format: cell-based, Candida albicans (TIMM, 1768); conditions: 5 µl of 500 µM per 3 mm well, 37 °C, mean ± SD
From the text: as §1, §2, §3

Caco-2 = format: cell-based, human; conditions: 24 h, serum-free medium, MTT, 37 °C, 5% CO2; mean ± SD
Procedure: (§4) The used mammalian cell lines in our study were colorectal adenocarcinoma (Caco2, ATCC-HTB-37), colorectal carcinoma (HCT 116, ATCC-CCL-247), lung carcinoma (A549, ATCC- CCL-185), cervical cancer cells (HeLa, ATCC-CCL-2), neuroblastoma (SH-SY5Y, ATCC- CRL-2266), rhabdomyosarcoma (RD, ATCC- CCL-136) and human embryonic kidney cells (HEK 293, ATCC- CRL-1573). All the cells were maintained into Dulbecco’s Modified Eagle’s Medium (DMEM) supplemented with 10% heat-inactivated fetal bovine serum, 2 mM L-Glutamine, 100 U/ml penicillin–streptomycin (Pen/Strep) at 37 °C in 5% CO2 humidified incubator.
(§5) First, the cytotoxic effect of 24 h serum deprivation on all the selected cell lines was evaluated by MTT assay, following standard protocols. Briefly, cells were seeded and maintained at 37 °C and 5% CO2 in 24-well plates until they reached 75–80% confluency (zero time). Following washing twice with 1X PBS, cells were incubated in a serum-free medium for 24 h, under the same incubation conditions. The cell viability percentages were calculated and compared to zero time as 100% viability to nullify any possible effects of serum deprivation. Thence, the cell viability percentage of each cell line in response to 24 h treatment with different concentrations of each cryptide in serum-free medium was calculated. […] All the measured cell viability percentages were normalised against the corresponding negative controls.

HCT 116 = format: cell-based, human; conditions: 24 h, serum-free medium, MTT, 37 °C, 5% CO2; mean ± SD
Procedure: as §4, §5

HeLa = format: cell-based, human; conditions: 24 h, serum-free medium, MTT, 37 °C, 5% CO2; mean ± SD
Procedure: as §4, §5

[1] = format: cell-based; conditions: 24 h, serum-free medium, MTT, 37 °C, 5% CO2; mean ± SD; read-out: IC50 (µM) A459
Procedure: as §4, §5

RD = format: cell-based; conditions: 24 h, serum-free medium, MTT, 37 °C, 5% CO2; mean ± SD
Procedure: as §4, §5

SH-SY5Y = format: cell-based; conditions: 24 h, serum-free medium, MTT, 37 °C, 5% CO2; mean ± SD
Procedure: as §4, §5

HEK-293 = test: MTT cytotoxicity on normal cells; format: cell-based, human; conditions: 25 µM (highest tested concentration), 24 h, serum-free medium
Procedure: as §4, §5

Compound	NaCl concentration up to which active against bacterial pathogens (bacterial pathogens)	Antimicrobial activity (inhibition zone) B. subtilis (B. subtilis)	Antimicrobial activity (inhibition zone) S. aureus (S. aureus)	Antimicrobial activity (inhibition zone) E. faecalis (E. faecalis)	Antimicrobial activity (inhibition zone) E. coli K-1 (E. coli K-1)	Antimicrobial activity (inhibition zone) K. pneumoniae (K. pneumoniae)	Antimicrobial activity (inhibition zone) S. enterica (S. enterica)	Antimicrobial activity (inhibition zone) MRSA (MRSA)	Antimicrobial activity (inhibition zone) S. marcescens (S. marcescens)	Antimicrobial activity (inhibition zone) S. epidermidis (S. epidermidis)	Antimicrobial activity (inhibition zone) P. aeruginosa (P. aeruginosa)	Antifungal activity (inhibition zone) C. albicans (C. albicans)	IC50 (Caco-2)	IC50 (HCT 116)	IC50 (HeLa)	IC50 [1]	IC50 (RD)	IC50 (SH-SY5Y)	Cell death of HEK-293 (HEK-293)
Pleurocidin (GWGSFFKKAAHVGKHVGKAALTHYL; UniProt P81941 23-47, looked up) [AMP isolated from a marine flatfish Pseudopleuronectes americanus (Winter flounder)]	up to 625 mM	–	–	–	–	–	–	–	–	–	–	–	–	–	–	–	–	–	–
CC[C@H](C)[C@H](NC(=O)CN)C(=O)NCC(=O)N[C@@H](C)C(=O)N[C@H](C(=O)N[C@@H](CC(C)C)C(=O)N[C@@H](CCCCN)C(=O)N[C@H](C(=O)N[C@@H](CC(C)C)C(=O)N[C@H](C(=O)N[C@H](C(=O)NCC(=O)N[C@@H](CC(C)C)C(=O)N1CCC[C@H]1C(=O)N[C@@H](C)C(=O)N[C@@H](CC(C)C)C(=O)N[C@H](C(=O)N[C@@H](CO)C(=O)N[C@@H](Cc1c[nH]c2ccccc12)C(=O)N[C@H](C(=O)N[C@@H](CCCCN)C(=O)N[C@@H](CCCNC(=N)N)C(=O)N[C@@H](CCCCN)C(=O)N[C@@H](CCCNC(=N)N)C(=O)N[C@@H](CCC(N)=O)C(=O)N[C@@H](CCC(N)=O)C(N)=O)[C@@H](C)CC)[C@@H](C)CC)[C@@H](C)O)[C@@H](C)O)C(C)C)C(C)C [Melittin, reference compound]	–	21.8± 3.1 A.U.	41.5 ± 2.5 A.U.	11.8 ± 1.3 A.U.	6.5 ± 0.9 A.U.	11.8 ± 1.3 A.U.	7.8 ± 2 A.U.	11.8 ± 1.3 A.U.	7.7 ± 1 A.U.	10.4 ± 1.2 A.U.	6 ± 0.9 A.U.	14.2 ± 1.4 A.U.	1.2 ± 0.9 µM	2.1 ± 0.2 µM	0.9 ± 0.1 µM	2.3 ± 0.6 µM	2.4 ± 0.5 µM	1.7 ± 1 µM	78.7%

Source: paper PMC10482825 (Scientific Reports, 2023)
